Test results reported in patent publication US7045528B2, “Benzofused heterozryl amide derivatives of thienopyridines useful as therapeutic agents, pharmaceutical compositions including the same, and methods for their use” (Agouron Pharmaceuticals, Inc., priority 2002, dated 2006).

Legend:
PDGFRβ = molecular target: T1, PDGFRβ (Homo sapiens, UniProt P09619); experiment: PAE-PDGFRβ phosphorylation in PAE-PDGFRB cells assay; type: cell-based; settings: PAE cells overexpressing human PDGFRβ, PDGF-BB stimulated; read-out: PAE PDGFR autophos IC50 (nM) AVG
T1 construct: expressed in transfected cells; host or cells: porcine aorta endothelial (PAE)-PDGFRβ cells
T1 sequence (P09619 33-1106): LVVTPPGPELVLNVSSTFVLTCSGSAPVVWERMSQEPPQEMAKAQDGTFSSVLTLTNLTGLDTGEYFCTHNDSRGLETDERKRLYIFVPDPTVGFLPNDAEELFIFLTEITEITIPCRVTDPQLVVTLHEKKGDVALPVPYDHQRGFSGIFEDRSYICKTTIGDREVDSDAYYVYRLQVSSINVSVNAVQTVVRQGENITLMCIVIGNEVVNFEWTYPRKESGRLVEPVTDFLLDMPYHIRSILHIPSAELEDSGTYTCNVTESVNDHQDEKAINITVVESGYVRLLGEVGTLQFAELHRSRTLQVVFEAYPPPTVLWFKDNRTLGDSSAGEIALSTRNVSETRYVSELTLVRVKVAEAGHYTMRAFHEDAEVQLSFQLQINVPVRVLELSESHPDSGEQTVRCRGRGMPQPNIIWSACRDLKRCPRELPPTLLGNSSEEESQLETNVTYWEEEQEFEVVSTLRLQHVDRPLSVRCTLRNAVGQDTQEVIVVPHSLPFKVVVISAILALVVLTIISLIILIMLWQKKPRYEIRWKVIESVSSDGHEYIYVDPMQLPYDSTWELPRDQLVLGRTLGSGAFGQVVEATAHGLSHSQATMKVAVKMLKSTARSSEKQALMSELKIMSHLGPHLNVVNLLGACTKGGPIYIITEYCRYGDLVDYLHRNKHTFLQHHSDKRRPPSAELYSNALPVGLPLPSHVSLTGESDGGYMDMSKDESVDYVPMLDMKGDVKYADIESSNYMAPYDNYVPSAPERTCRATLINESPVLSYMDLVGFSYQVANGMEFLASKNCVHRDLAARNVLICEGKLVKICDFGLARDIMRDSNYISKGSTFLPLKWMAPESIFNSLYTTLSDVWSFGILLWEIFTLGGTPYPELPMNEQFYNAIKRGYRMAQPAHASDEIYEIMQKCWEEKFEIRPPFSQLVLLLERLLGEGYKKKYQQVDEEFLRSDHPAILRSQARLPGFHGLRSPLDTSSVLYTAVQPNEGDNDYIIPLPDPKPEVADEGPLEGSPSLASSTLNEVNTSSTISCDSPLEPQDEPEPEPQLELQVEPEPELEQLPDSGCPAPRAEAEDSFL
How it was run: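 Inhibition of PDGF-BB-induced (1 μg/mL, 8 min, with 2 mM vanadate) PDGFRβ autophosphorylation in porcine aortic endothelial cells expressing the human receptor. Cells were starved 16 h and pretreated with compound 1 h at 37 °C. Lysates were captured with anti-PDGFRβ and probed with HRP-PY20 at 450 nm; four-parameter IC50.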

Mouse PK assay = type: in vivo; settings: 50 mg/kg, B6 female mice, plasma; for AUC / Cmax: mouse, po
Method: The pharmacokinetics (e.g., absorption and elimination) of drugs in mice were analyzed using the following experiment. Test compounds were formulated as a suspension in a 30:70 (PEG 400:acidified H2O) vehicle. This solution was administered orally (p.o.) and intraperitoneally (i.p.) at 50 mg/kg to two distinct groups (n=4) of B6 female mice. Blood samples were collected via an orbital bleed at time points: 0 hour (pre-dose), 0.5 hr, 1.0 hr, 2.0 hr, and 4.0 hr post dose. Plasma was obtained from each sample by centrifugation at 2500 rpm for 5 min. Test compound was extracted from the plasma by an organic protein precipitation method. For each time bleed, 50 μL of plasma was combined with 1.0 mL of acetonitrile, vortexed for 2 min. and then spun at 4000 rpm for 15 min. to precipitate the protein and extract out the test compound. Next, the acetonitrile supernatant (the extract containing test compound) was poured into new test tubes and evaporated on a hot plate (25° C.) under a steam of N2 gas. To each tube containing the dried test compound extract, 125 μL of mobile phase (60:40, 0.025 M NH4H2PO4+2.5 mL/L TEA:acetonitrile) was added. The test compound was resuspended in the mobile phase by vortexing and more protein was removed by centrifugation at 4000 rpm for 5 min. Each sample was poured into an HPLC vial for test compound analysis on an Hewlett Packard 1100 series HPLC with UV detection. From each sample, 95 μL was injected onto a Phenomenex-Prodigy reverse phase C-18, 150×3.2 mm column and eluted with a 45–50% acetonitrile gradient run over 10 min. Test-compound plasma concentrations (μg/mL) were determined by a comparison to standard curve (peak area vs. conc. μg/mL) using known concentrations of test compound extracted from plasma samples in the manner described above. Along with the standards and unknowns, three groups (n=4) of quality controls (0.25 μg/mL, 1.5 μg/mL, and 7.5 μg/mL) were run to insure the consistency of the analysis. […] The quantitated test samples were plotted for visual display using Kalidagraph software and their pharmacokinetic parameters were determined using WIN NONLIN software.

| Compound | IC50 (PDGFRβ) [nM] | mouse Cmin, po (Mouse PK assay) [ng/mL] | AUC (Mouse PK assay) [ng·h/mL] | Cmax (Mouse PK assay) [ng/mL] |
| --- | --- | --- | --- | --- |
| CNC(=O)c1c(C)sc2cc(Oc3ccnc4cc(-c5nccn5C)sc34)ccc12 [Example 1, 2-methyl-6-(2-[1-methyl-1H-imidazol-2-yl]thieno[3,2-b]pyridin-7-yloxy)benzo[b]thiophene-3-carboxylic acid methylamide] | 164 | 2793 | 183000 | 125000 |
| CNC(=O)c1c(C)sc2cc(Oc3ccnc4cc(C(=O)N5CCC[C@H]5COC)sc34)ccc12 [Example 2, 6-(2-[(S)-2-(methoxymethyl)pyrrolidine-1-carbonyl]thieno[3,2-b]pyridin-7-yloxy)-2-methylbenzo[b]thiophene-3-carboxylic acid methylamide] | 912 |  |  |  |
| CNC(=O)c1c(C)sc2cc(Oc3ccnc4cc(C(=O)N5CC[C@@H](OC)C5)sc34)ccc12 [Example 4, 6-(2-[(R)-3-methoxypyrrolidine-1-carbonyl]thieno[3,2-b]pyridin-7-yloxy)-2-methylbenzo[b]thiophene-3-carboxylic acid methylamide] | 284 | 200 | 7670 | 2340 |
| CNC(=O)c1c(C)oc2cc(Oc3ccnc4cc(C(=O)N5CC[C@@H](OC)C5)sc34)ccc12 [Example 12, 6-(2-[3-methoxypyrrolidine-1-carbonyl]thieno[3,2-b]pyridin-7-yloxy)-2-methylbenzofuran-3-carboxylic acid methylamide] | 14.4 | 270 | 12000 | 5420 |
| CNC(=O)c1c(C)oc2cc(Oc3ccnc4cc(-c5nccn5C)sc34)ccc12 [Example 13] | 41 | 1700 | 63000 | 24800 |
| CNC(=O)c1c(C)n(C)c2cc(Oc3ccnc4cc(C(=O)N5CC[C@@H](OC)C5)sc34)ccc12 [Example 18, 1,2-dimethyl-6-(2-[3-methoxy-pyrrolidine-1-carbonyl]thieno[3,2-b]pyridin-7-yloxy)-1H-indole-3-carboxylic acid methylamide] | 32 | 342 | 8720 | 4120 |
| CNC(=O)c1c(C)n(C)c2cc(Oc3ccnc4cc(C(=O)N5CC[C@@H](O)C5)sc34)ccc12 [Example 19, 1,2-dimethyl-6-(2-[3-hydroxy-pyrrolidine-1-carbonyl]thieno[3,2-b]pyridin-7-yloxy)-1H-indole-3-carboxylic acid methylamide] | 172 | 4 | 120 | 51 |
| CCCCNC(=O)c1c(C)n(C)c2cc(Oc3ccnc4cc(-c5nccs5)sc34)ccc12 [Example 62, 1,2-Dimethyl-6-(2-thiazol-2-yl-thieno[3,2-b]pyridin-7-yloxy)-1H-indole-3-carboxylic acid butylamide] | 18.7 |  |  |  |

The remaining molecules from weak to strong by IC50 (PDGFRβ), led by results:

| IC50 (PDGFRβ) [nM] | mouse Cmin, po (Mouse PK assay) [ng/mL] | AUC (Mouse PK assay) [ng·h/mL] | Cmax (Mouse PK assay) [ng/mL] | Compound |
| --- | --- | --- | --- | --- |
| 756 | 66 | 2450 | 956 | CNC(=O)c1c(C)sc2cc(Oc3ccnc4cc(C(=O)N5CCC[C@H]5CO)sc34)ccc12 [Example 3] |
| 255 | 20 | 586 | 355 | CNC(=O)c1c(C)sc2cc(Oc3ccnc4cc(C(=O)N5CC[C@@H](O)C5)sc34)ccc12 [Example 6, 6-(2-[(R)-3-hydroxypyrrolidine-1-carbonyl]thieno[3,2-b]pyridin-7-yloxy)-2-methylbenzo[b]thiophene-3-carboxylic acid methylamide] |
| 43 |  |  |  | Cc1c(C(=O)NC2CC2)c2ccc(Oc3ccnc4cc(-c5nccn5C)sc34)cc2n1C [Example 20, 1,2-Dimethyl-6-[2-(1-methyl-1H-imidazol-2-yl)-thieno[3,2-b]pyridin-7-yloxy]-1H-indole-3-carboxylic acid cyclopropylamide] |
| 20 | 2334 | 71600 | 28800 | CNC(=O)c1c(C)n(C)c2cc(Oc3ccnc4cc(-c5nccn5C)sc34)ccc12 [Example 17, 1,2-dimethyl-6-(2-[1-methyl-1H-imidazol-2-yl]thieno[3,2-b]pyridin-7-yloxy)-1H-indole-3-carboxylic acid methylamide] |
| 17.8 |  |  |  | CCCNC(=O)c1c(C)n(C)c2cc(Oc3ccnc4cc(-c5nccn5C)sc34)ccc12 [Example 61, 1,2-Dimethyl-6-[2-(1-methyl-1H-imidazol-2-yl)thieno[3,2-b]pyridin-7-yloxy]-1H-indole-3-carboxylic acid propylamide] |
